From patent US10986838B2, “Herbicides” (SYNGENTA PARTICIPATIONS AG, priority 2016, dated 2021)

Tests used:
Type in all cases: in vivo
[1] = test system: Abutilon theophrasti (ABUTH); experiment: Post-emergence herbicidal activity (B2); conditions: Test B2b, 1000 g/ha, evaluated after 13 days, 5=total damage to plant, 0=no damage to plant
Protocol: (§1) B2 Post-Emergence Herbicidal Activity Seeds of a variety of test species were sown in standard soil in pots: Triticum aestivium (TRZAW), Avena fatua (AVEFA), Alopecurus myosuroides (ALOMY), Echinochloa crus-galli (ECHCG), Lolium perenne (LOLPE), Zea Mays (ZEAMX), Abutilon theophrasti (ABUTH), Amaranthus retroflexus (AMARE) and Setaria faberi (SETFA). After 8 days cultivation (post-emergence) under controlled conditions in a glasshouse (at 24/16° C., day/night; 14 hours light; 65% humidity), the plants were sprayed with an aqueous spray solution derived from the formulation of the technical active ingredient in acetone/water (50:50) solution containing 0.5% Tween 20 (polyoxyethelyene sorbitan monolaurate, CAS RN 9005-64-5). The test plants were then grown in a glasshouse under controlled conditions (at 24/16° C., day/night; 14 hours light; 65% humidity) and watered twice daily. After 13 days, the test was evaluated (5=total damage to plant; 0=no damage to plant). Tables B2a and B2b Control of Weed Species by Compound of Formula (I) after Post-Emergence Application

[2] = test system: Lolium perenne (LOLPE); experiment: Post-emergence herbicidal activity (B2); conditions: Test B2b, 1000 g/ha, evaluated after 13 days, 5=total damage to plant, 0=no damage to plant
Protocol: as §1

[3] = test system: Setaria faberi (SETFA); experiment: Post-emergence herbicidal activity (B2); conditions: Test B2b, 1000 g/ha, evaluated after 13 days, 5=total damage to plant, 0=no damage to plant
Protocol: as §1

[4] = test system: Echinochloa crus-galli (ECHCG); experiment: Post-emergence herbicidal activity (B2); conditions: Test B2b, 1000 g/ha, evaluated after 13 days, 5=total damage to plant, 0=no damage to plant
Protocol: as §1

[5] = test system: Amaranthus retroflexus (AMARE); experiment: Post-emergence herbicidal activity (B2); conditions: Test B2b, 1000 g/ha, evaluated after 13 days, 5=total damage to plant, 0=no damage to plant
Protocol: as §1

[6] = test system: Zea Mays (ZEAMX); experiment: Post-emergence herbicidal activity (B2); conditions: Test B2b, 1000 g/ha, evaluated after 13 days, 5=total damage to plant, 0=no damage to plant
Protocol: as §1

[7] = test system: Abutilon theophrasti (ABUTH); experiment: Pre-emergence herbicidal activity (B1); conditions: Test 1b, 1000 g/ha, evaluated after 13 days, 5=total damage to plant, 0=no damage to plant
Protocol: as §1, with “B1 Pre-Emergence” for “B2 Post-Emergence”, “After” for “After 8 days”, “for one day (pre-emergence)” for “(post-emergence)”, “B1a” for “B2a”, “B1b” for “B2b”, “Pre-Emergence” for “Post-Emergence”

[8] = test system: Lolium perenne (LOLPE); experiment: Pre-emergence herbicidal activity (B1); conditions: Test 1b, 1000 g/ha, evaluated after 13 days, 5=total damage to plant, 0=no damage to plant
Protocol: as §1, with “B1 Pre-Emergence” for “B2 Post-Emergence”, “After” for “After 8 days”, “for one day (pre-emergence)” for “(post-emergence)”, “B1a” for “B2a”, “B1b” for “B2b”, “Pre-Emergence” for “Post-Emergence”

[9] = test system: Setaria faberi (SETFA); experiment: Pre-emergence herbicidal activity (B1); conditions: Test 1b, 1000 g/ha, evaluated after 13 days, 5=total damage to plant, 0=no damage to plant
Protocol: as §1, with “B1 Pre-Emergence” for “B2 Post-Emergence”, “After” for “After 8 days”, “for one day (pre-emergence)” for “(post-emergence)”, “B1a” for “B2a”, “B1b” for “B2b”, “Pre-Emergence” for “Post-Emergence”

[10] = test system: Echinochloa crus-galli (ECHCG); experiment: Pre-emergence herbicidal activity (B1); conditions: Test 1b, 1000 g/ha, evaluated after 13 days, 5=total damage to plant, 0=no damage to plant
Protocol: as §1, with “B1 Pre-Emergence” for “B2 Post-Emergence”, “After” for “After 8 days”, “for one day (pre-emergence)” for “(post-emergence)”, “B1a” for “B2a”, “B1b” for “B2b”, “Pre-Emergence” for “Post-Emergence”

[11] = test system: Amaranthus retroflexus (AMARE); experiment: Pre-emergence herbicidal activity (B1); conditions: Test 1b, 1000 g/ha, evaluated after 13 days, 5=total damage to plant, 0=no damage to plant
Protocol: as §1, with “B1 Pre-Emergence” for “B2 Post-Emergence”, “After” for “After 8 days”, “for one day (pre-emergence)” for “(post-emergence)”, “B1a” for “B2a”, “B1b” for “B2b”, “Pre-Emergence” for “Post-Emergence”

[12] = test system: Zea Mays (ZEAMX); experiment: Pre-emergence herbicidal activity (B1); conditions: Test 1b, 1000 g/ha, evaluated after 13 days, 5=total damage to plant, 0=no damage to plant
Protocol: as §1, with “B1 Pre-Emergence” for “B2 Post-Emergence”, “After” for “After 8 days”, “for one day (pre-emergence)” for “(post-emergence)”, “B1a” for “B2a”, “B1b” for “B2b”, “Pre-Emergence” for “Post-Emergence”

| Compound | ABUTH damage score [1] | LOLPE damage score [2] | SETFA damage score [3] | ECHCG damage score [4] | AMARE damage score [5] | ZEAMX damage score [6] | ABUTH damage score [7] | LOLPE damage score [8] | SETFA damage score [9] | ECHCG damage score [10] | AMARE damage score [11] | ZEAMX damage score [12] |
| --- | --- | --- | --- | --- | --- | --- | --- | --- | --- | --- | --- | --- |
| COc1cncc(-c2ccc(N)c(C)n2)c1 [Compound A13] | 0 | 0 | 1 | 1 | 1 | 2 | 0 | 0 | 0 | 0 | 0 | 0 |
| Cc1nc(-c2cncc(F)c2)ccc1N [Compound A8] | 0 | 3 | 5 | 4 | 0 | 5 | 0 | 1 | 5 | 2 | 0 | 3 |
| CNc1ccc(-c2cncnc2)nc1C [Compound A15] | 0 | 1 | 2 | 2 | 1 | 1 | 0 | 0 | 1 | 1 | 0 | 1 |
| Fc1cncc(-c2ccc(NCc3ccccc3)c(C(F)(F)F)n2)c1 [Compound A21] | 0 | 1 | 5 | 1 | 1 | 5 | 0 | 2 | 5 | 3 | 1 | 3 |
| CNc1ccc(-c2cncc(C)c2)nc1C(F)(F)F [Compound A6] | 0 | 1 | 3 | 1 | 0 | 1 | 1 | 0 | 1 | 0 | 1 | 0 |
| N#Cc1nc(-c2cncc(F)c2)ccc1N [Compound A9, 3-amino-6-(5-fluoro-3-pyridyl)pyridine-2-carbonitrile] | 1 | 1 | 4 | 4 | 1 | 4 | 1 | 0 | 4 | 4 | 1 | 2 |
| Cc1ccc(CNc2ccc(-c3cncc(F)c3)nc2C(F)(F)F)cc1 [Compound A20] | 0 | 2 | 5 | 3 | 0 | 5 | 0 | 0 | 5 | 2 | 0 | 3 |
| CNc1ccc(-c2cncnc2)nc1C(F)(F)F [Compound A34] | 1 | 3 | 5 | 5 | 2 | 5 | 0 | 3 | 4 | 4 | 1 | 4 |
| Cc1nc(-c2cncc(C(F)(F)F)c2)ccc1N [Compound A12] | 0 | 0 | 1 | 1 | 0 | 1 | 0 | 0 | 0 | 0 | 0 | 0 |
| C=CCNc1ccc(-c2cncc(F)c2)nc1C(F)(F)F [Compound A25] | 0 | 3 | 5 | 4 | 2 | 5 | 0 | 2 | 4 | 4 | 1 | 5 |
| CC(Nc1ccc(-c2cncc(F)c2)nc1C(F)(F)F)c1ccccc1 (stereo not drawn) [Compound A17] | 0 | 1 | 4 | 4 | 0 | 4 | 0 | 0 | 2 | 0 | 0 | 0 |
| Fc1cncc(-c2ccc(NCc3ccc(F)cc3F)c(C(F)(F)F)n2)c1 [Compound A28] | 0 | 2 | 5 | 3 | 1 | 5 | 0 | 0 | 4 | 2 | 0 | 2 |
| Fc1cncc(-c2ccc(NCc3cccc(Cl)c3)c(C(F)(F)F)n2)c1 [Compound A18] | 0 | 2 | 5 | 3 | 0 | 5 | 0 | 0 | 4 | 2 | 0 | 4 |
| Fc1cncc(-c2ccc(NCc3ccc(Cl)cc3)c(C(F)(F)F)n2)c1 [Compound A24] | 0 | 2 | 5 | 3 | 0 | 5 | 0 | 1 | 4 | 2 | 0 | 3 |
| Fc1cncc(-c2ccc(NCC3CC3)c(C(F)(F)F)n2)c1 [Compound A29] | 2 | 4 | 5 | 5 | 2 | 5 | 1 | 3 | 5 | 4 | 3 | 5 |
| CC#CCNc1ccc(-c2cncc(F)c2)nc1C(F)(F)F [Compound A30] | 2 | 4 | 5 | 5 | 2 | 5 | 0 | 2 | 5 | 4 | 2 | 5 |
| Fc1cncc(-c2ccc(NCc3ccc(C(F)(F)F)cc3)c(C(F)(F)F)n2)c1 [Compound A26] | 0 | 2 | 4 | 3 | 0 | 5 | 0 | 0 | 4 | 2 | 0 | 2 |
